Like-named read-outs stand apart in the source and are kept apart here.
Columns and labels:
Dopamine D1 = Dopamine D1 (Homo sapiens, UniProt P21728); assay: Receptor binding, Dopamine D1
Procedure: Receptor-ligand binding studies were performed as known to one skilled in the art.
Dopamine receptor affinity included binding to D1, D2, D3, D4, and D5 receptors. Serotonin receptor affinity included binding to 5-HT1A, 5-HT2A, 5-HT2B, 5-HT2, 5-HT5A, 5-HT6, and 5-HT7 receptors. Alpha adrenergic receptor affinity included binding to α1A, α1B, α1C, α2A, α2B, and α2C receptors. Muscarinic receptor affinity included binding to M1, M2, M3, M4, and M5 receptors. Binding to the histamine H1 receptor, the calcium ion channel receptor, and the sodium ion channel receptor were also evaluated. […] Sulfoxide indicates the sulfoxide metabolite. […] Ki (the inhibition constants of binding) indicate binding affinity.

Serotonin 5-HT2A = Serotonin 5-HT2A (Homo sapiens, UniProt P28223); assay: Receptor binding, Serotonin 5-HT2A
Sequence of Serotonin 5-HT2A (P28223 whole entry): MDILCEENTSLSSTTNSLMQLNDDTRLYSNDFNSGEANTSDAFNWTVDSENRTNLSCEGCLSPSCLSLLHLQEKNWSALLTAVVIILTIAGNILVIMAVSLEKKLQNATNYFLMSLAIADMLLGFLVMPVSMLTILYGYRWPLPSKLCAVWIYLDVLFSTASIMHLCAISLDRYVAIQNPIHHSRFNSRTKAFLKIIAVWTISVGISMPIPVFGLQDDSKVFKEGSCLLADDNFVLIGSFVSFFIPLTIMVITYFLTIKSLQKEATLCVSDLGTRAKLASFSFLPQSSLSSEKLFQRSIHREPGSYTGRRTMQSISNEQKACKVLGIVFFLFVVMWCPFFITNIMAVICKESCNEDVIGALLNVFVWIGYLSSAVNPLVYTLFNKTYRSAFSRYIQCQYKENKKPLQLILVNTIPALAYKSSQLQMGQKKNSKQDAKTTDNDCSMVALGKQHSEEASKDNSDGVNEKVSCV
Procedure: (§1) Receptor-ligand binding studies were performed as known to one skilled in the art. Compounds evaluated were LMP, the parent compound, the NDM LMP metabolite of LMP, and the sulfoxide metabolite of LMP. These studies verified receptor binding and affinity by the parent compound, as well as identified other potential receptors for the parent compound and its metabolites, and identified and verified receptors and receptor affinity for the metabolites.
(§2) Dopamine receptor affinity included binding to D1, D2, D3, D4, and D5 receptors. Serotonin receptor affinity included binding to 5-HT1A, 5-HT2A, 5-HT2B, 5-HT2, 5-HT5A, 5-HT6, and 5-HT7 receptors. Alpha adrenergic receptor affinity included binding to α1A, α1B, α1C, α2A, α2B, and α2C receptors. Muscarinic receptor affinity included binding to M1, M2, M3, M4, and M5 receptors. Binding to the histamine H1 receptor, the calcium ion channel receptor, and the sodium ion channel receptor were also evaluated. In each of the tables, the following abbreviations are used: LMP indicates the parent compound levomepromazine. NDM LMP indicates the N-desmethyl (N-desmethyl) metabolite. Sulfoxide indicates the sulfoxide metabolite. […] Ki (the inhibition constants of binding) indicate binding affinity.

Serotonin 5-HT2C = target: T1, Serotonin 5-HT2C (Homo sapiens, UniProt P28335); assay: Receptor binding, Serotonin 5-HT2C
T1 sequence (P28335 33-458): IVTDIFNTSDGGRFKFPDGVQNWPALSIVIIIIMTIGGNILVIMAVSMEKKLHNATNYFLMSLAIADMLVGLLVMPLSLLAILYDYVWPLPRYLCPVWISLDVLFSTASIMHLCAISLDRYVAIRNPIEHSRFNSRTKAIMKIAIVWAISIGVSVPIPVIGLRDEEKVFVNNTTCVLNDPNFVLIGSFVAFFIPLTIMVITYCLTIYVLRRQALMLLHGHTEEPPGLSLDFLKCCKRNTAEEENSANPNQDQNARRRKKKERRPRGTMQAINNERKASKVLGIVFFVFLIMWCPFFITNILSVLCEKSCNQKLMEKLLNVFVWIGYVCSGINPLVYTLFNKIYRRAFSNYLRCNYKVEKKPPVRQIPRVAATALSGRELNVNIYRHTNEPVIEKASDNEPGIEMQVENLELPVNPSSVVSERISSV
Procedure: as §1, §2

Serotonin 5-HT6 = Serotonin 5-HT6 (Homo sapiens, UniProt P50406); assay: Receptor binding, Serotonin 5-HT6
Sequence of Serotonin 5-HT6 (P50406 whole entry): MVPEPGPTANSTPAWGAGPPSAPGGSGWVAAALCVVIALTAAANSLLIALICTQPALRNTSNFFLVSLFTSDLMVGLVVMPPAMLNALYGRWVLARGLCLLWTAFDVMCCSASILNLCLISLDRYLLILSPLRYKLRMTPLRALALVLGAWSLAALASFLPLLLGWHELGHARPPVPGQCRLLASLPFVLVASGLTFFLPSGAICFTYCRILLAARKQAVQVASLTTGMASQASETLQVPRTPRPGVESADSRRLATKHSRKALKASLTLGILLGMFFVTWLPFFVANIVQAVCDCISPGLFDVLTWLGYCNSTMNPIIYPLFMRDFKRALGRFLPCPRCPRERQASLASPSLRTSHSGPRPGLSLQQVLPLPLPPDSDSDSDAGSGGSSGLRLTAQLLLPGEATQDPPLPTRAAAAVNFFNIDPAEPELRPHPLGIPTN
Procedure: as §1, §2

Adrenergic α2A = Adrenergic α2A (Homo sapiens, UniProt P08913); assay: Receptor binding, Adrenergic α2A
Sequence of Adrenergic α2A (P08913 whole entry): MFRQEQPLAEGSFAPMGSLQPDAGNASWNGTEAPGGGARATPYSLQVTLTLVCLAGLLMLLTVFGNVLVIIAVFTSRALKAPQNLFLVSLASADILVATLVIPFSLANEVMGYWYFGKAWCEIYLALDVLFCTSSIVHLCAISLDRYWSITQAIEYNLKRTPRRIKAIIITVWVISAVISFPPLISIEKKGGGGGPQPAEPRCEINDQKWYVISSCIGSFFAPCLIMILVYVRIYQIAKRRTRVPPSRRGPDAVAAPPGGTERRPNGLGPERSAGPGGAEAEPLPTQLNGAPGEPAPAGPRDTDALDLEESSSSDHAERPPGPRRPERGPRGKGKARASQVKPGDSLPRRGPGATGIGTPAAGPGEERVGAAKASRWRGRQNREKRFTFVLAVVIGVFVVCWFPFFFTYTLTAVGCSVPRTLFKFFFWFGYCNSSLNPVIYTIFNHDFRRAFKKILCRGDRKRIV
Procedure: as §1, §2

Adrenergic α2B = target: T2, Adrenergic α2B (Homo sapiens, UniProt P18089); assay: Receptor binding, Adrenergic α2B
T2 sequence (P18089 1-450): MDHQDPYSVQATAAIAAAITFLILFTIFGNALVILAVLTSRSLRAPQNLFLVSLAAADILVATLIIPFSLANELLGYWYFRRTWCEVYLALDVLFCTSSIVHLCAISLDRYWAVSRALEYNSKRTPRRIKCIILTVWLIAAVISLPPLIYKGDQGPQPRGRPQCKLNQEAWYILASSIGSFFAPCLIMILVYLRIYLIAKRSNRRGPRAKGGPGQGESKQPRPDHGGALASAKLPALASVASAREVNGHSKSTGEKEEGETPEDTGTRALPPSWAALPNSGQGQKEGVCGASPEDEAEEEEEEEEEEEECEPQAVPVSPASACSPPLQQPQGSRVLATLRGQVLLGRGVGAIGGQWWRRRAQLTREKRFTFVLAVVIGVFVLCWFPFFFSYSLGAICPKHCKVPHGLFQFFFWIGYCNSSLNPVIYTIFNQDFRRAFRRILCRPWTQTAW
Procedure: as §1, §2

Muscarinic M1 = target: T3, Muscarinic M1 (Homo sapiens, UniProt P11229); assay: Receptor binding, Muscarinic M1
T3 sequence (P11229 1-460): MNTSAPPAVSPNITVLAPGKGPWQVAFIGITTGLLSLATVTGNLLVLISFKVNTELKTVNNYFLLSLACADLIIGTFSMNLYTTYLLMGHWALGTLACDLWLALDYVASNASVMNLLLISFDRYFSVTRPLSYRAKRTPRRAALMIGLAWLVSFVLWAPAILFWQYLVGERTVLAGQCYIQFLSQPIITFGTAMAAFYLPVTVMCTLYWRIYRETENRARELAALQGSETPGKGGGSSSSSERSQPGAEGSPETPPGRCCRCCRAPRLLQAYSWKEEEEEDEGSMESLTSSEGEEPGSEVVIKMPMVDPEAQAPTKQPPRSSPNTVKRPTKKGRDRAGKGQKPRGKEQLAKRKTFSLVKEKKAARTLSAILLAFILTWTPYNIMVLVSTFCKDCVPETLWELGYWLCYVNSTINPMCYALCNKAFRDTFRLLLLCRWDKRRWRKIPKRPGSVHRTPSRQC
Procedure: as §1, §2

Calcium Channel = assay: Receptor binding, Calcium Channel
Procedure: as §1, §2

Sodium Channel = assay: Receptor binding, Sodium Channel; parameters: key to Relative Affinity: ≧ indicates greater or equal affinity; = indicates about the same affinity; − indicates no affinity
Procedure: as §1, §2

dopamine receptors = assay: Receptor affinity summary, dopamine receptors; format: binding; parameters: key to Relative Affinity: ≧ indicates greater or equal affinity; = indicates about the same affinity; − indicates no affinity; conditions: for Relative Affinity: Dopamine
Procedure: as §1, §2

serotonin receptors = assay: Receptor affinity summary, serotonin receptors; format: binding; parameters: key to Relative Affinity: ≧ indicates greater or equal affinity; = indicates about the same affinity; − indicates no affinity; conditions: for Relative Affinity: Serotonin
Procedure: as §1, §2

muscarinic receptors = assay: Receptor affinity summary, muscarinic receptors; format: binding; conditions: for Relative Affinity: Muscarinic; for binding affinity to muscarinic receptors (in words): all receptors
Procedure: as §1, §2

Serum protein binding = format: in vitro ADME
[1] = Serum concentrations and bioavailability after LMP administration; format: in vivo

Sequence of Dopamine D1 (P21728 whole entry): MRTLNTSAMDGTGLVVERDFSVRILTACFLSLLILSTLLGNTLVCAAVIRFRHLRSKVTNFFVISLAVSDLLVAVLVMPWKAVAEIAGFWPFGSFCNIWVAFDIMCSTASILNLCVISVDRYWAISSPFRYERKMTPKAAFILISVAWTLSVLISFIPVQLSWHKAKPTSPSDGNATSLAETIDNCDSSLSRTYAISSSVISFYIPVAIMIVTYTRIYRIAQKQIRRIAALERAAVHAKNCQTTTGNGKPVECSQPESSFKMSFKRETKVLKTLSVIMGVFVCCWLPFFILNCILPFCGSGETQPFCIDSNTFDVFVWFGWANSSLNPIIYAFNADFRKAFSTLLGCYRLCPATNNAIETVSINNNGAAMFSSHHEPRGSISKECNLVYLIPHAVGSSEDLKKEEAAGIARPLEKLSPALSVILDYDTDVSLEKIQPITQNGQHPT

| Compound | Ki (Dopamine D1) | Ki (Serotonin 5-HT2A) | Ki (Serotonin 5-HT2C) | Ki (Serotonin 5-HT6) | Ki (Adrenergic α2A) | Ki (Adrenergic α2B) | Ki (Muscarinic M1) | Ki (Calcium Channel) | Relative Affinity (Calcium Channel) | Relative Affinity (Sodium Channel) | Ki (Sodium Channel; read-out: Ki) | Relative Affinity (dopamine receptors) | Relative Affinity (serotonin receptors) | Relative Affinity (muscarinic receptors) | binding affinity to muscarinic receptors (in words) (muscarinic receptors) | further results |
| --- | --- | --- | --- | --- | --- | --- | --- | --- | --- | --- | --- | --- | --- | --- | --- | --- |
| COc1ccc2c(c1)N(C[C@H](C)CN(C)C)c1ccccc1[S+]2[O-] (stereo partly drawn) [Sulfoxide, levomepromazine sulfoxide] | > 10000 nM | 410 nM | 1980 nM | > 10000 nM | > 10000 nM | > 10000 nM | 726 nM | 9090 nM | NDM LMP > LMP > sulfoxide | − | > 10000 nM | − | − | LMP = NDM LMP > sulfoxide | low affinity | Ki (Sodium Channel): no affinity was detected; binding affinity to dopamine receptors (in words) (dopamine receptors): essentially no binding affinity; binding affinity to serotonin receptors (in words) (serotonin receptors): essentially no binding affinity; free fraction (less protein binding), relative (Serum protein binding; relative to LMP or NDM LMP): 20 fold; sulfoxide detection after LMP ([1]; 25 mg LMP intramuscularly): no sulfoxide was detected; sulfoxide concentrations relative to parent compound ([1]; LMP 50 mg to 350 mg orally daily for one week): 2.5 times; sulfoxide formation after LMP ([1]; LMP intravenously, bioavailability study): sulfoxide formation was detected although to a much lower extent compared to the oral formulation; total serum concentrations relative to parent LMP or NDM LMP ([1]; in vivo): 1.5-3.0 fold |
| CNCC(C)CN1c2ccccc2Sc2ccc(OC)cc21 (stereo not drawn) [NDM LMP, R(+) 2-methoxy-10-2-methyl-3-monomethylaminopropyl phenothiazine] | 99 nM | < 4 nM | 9 nM | 98 nM | 239 nM | 48 nM | 54 nM | 49 nM | NDM LMP > LMP > sulfoxide | NDM LMP > LMP | 643 nM | LMP = NDM LMP | LMP = NDM LMP | LMP = NDM LMP > sulfoxide | moderate-to-high affinities | fraction unbound (Serum protein binding; serum): 0.01 |
| COc1ccc2c(c1)N(C[C@H](C)CN(C)C)c1ccccc1S2 [LMP, Levomepromazine] |  | < 4 nM | 8 nM | 82 nM |  | 25 nM | 43 nM | 407 nM |  |  | 1090 nM |  |  |  | moderate-to-high affinities | bioavailability ([1]; in vivo, 25 mg oral formulation compared to 25 mg intravenous dose, read-out: absolute bioavailability): ~20% |

Source: patent US20050080076A1 (Xanodyne Pharmacal, Inc., priority 2003, published 2005)
